Patent US20010053772A1, “Aza analogues of alkyl lysophospholipids exert immunomodulatory effects” (priority 2000, published 2001)

Legend:
TNF-α [1] = conditions: cited from earlier work
TNF-α [2] = assay: TNF-α secretion by human PBM, ELISA of supernatants; format: cell-based; conditions: for effect on BN52207 induced secretion of TNF-α: PBM 18 hours with BN52207 (5 μg/ml), emetine (1 μg/ml), cycloheximide (5 μg/ml)
Description: Also referring to FIG. 2, the AALP analogues, are therein shown to have immunoregulatory properties. The effect of AALP on the secretion of TNF-α, IL-1β, IL-6, and IL-10 cytokines by both resting and LPS and IFN-γ activated human peripheral blood derived monocytes. Human PBM were incubated for 18 hours at 37° C. in the absence or in the presence of different concentrations of AALP analogues. The cell-free supernatants were harvested and clarified by centrifugation and assessed for the presence of TNF-α, IL-1β, and IL-6 by Enzyme Linked Immunosorbant Assay (ELISA). For TNF-α, there was stimulation of secretion by all compounds at concentrations >0.6 μg/ml and up to 10 μg/ml. […] Similar findings were also obtained for IL-1β. There was no significant difference in the levels of stimulated TNF-α and IL-1β among the five AALP compounds. In contrast to TNF-α and IL-1β, there was no significant stimulation of IL-6 above background levels upon stimulation by any of the five AALP analogues. However, there was significant inhibition of IL-6 secretion at 10 μg/ml and the levels were below the spontaneous secretion of IL-6.
As a result of the similarity of results of the five AALP on PBM, BN52207 was selected to conduct the following experiments. However, it is to be understood that any other AALP analogue may be used to obtain a similar result. Now referring to FIG. 3, human PBM were incubated for 18 hours at 37° C. in the presence or absence of different concentration of BN52207. The PBM were left untreated or treated with IFN-γ (500 U/ml) or LPS (1 μg/ml) added at the initiation of the culture. The supernatants were harvested, clarified by centrifugation, and stored at −70° C. The levels of TNF-α with IFN-γ (FIG. 3A), LPS (FIG. 3B), or BN+LPS (FIG. 3C) activated PBM were assessed by ELISA.
BN52207 potentiated the secretion of TNF-α from IFN-γ-activated PBM and LPS-activated PBM. […] Now referring to FIG. 4, to confirm de novo synthesis of TNF-α mRNA PBM were treated with protein synthesis inhibitors. PBM were incubated for 18 hours with BN52207 (5 μg/ml) in the absence or presence of LPS (1 μg/ml), LPS (1 μg/ml) plus pentoxifylline (50 μg/ml), emetine (1 μg/ml), and cycloheximide (5 μg/ml). The cell-free supernatants were collected and clarified by centrifugation and the level of TNF-α in the supernatants was assessed by ELISA.
Now referring to FIGS. 8 A, B, and C, the kinetics of induction/inhibition of cytokine secretion by AALP were examined. […]
Human peripheral blood was obtained from normal volunteers as per HSPC guidelines of UCLA. […] The adherent cells prepared by this procedure were primarily monocytes (>90%) as determined by esterase staining and flow cytometry using markers for monocytes, T cells, B cells, and NK cells. […]

CC1C(=O)OC2C(O)C34C5CC(C(C)(C)C)C36C(OC(=O)C6O)OC4(C(=O)O5)C12O (centres unmarked) [BN52021]
effect on TNF-α augmented production by PAF in monocytes (TNF-α [1]): blocks

C[C@@H]1C[C@@H]([C@H](O)CC2CC(=O)NC(=O)C2)C(=O)[C@@H](C)C1 [CHX, cycloheximide]
effect on BN52207 induced secretion of TNF-α (TNF-α [2]; FIG. 4): inhibited

CC[C@H]1CN2CCc3cc(OC)c(OC)cc3[C@@H]2C[C@@H]1C[C@H]1NCCc2cc(OC)c(OC)cc21 [emetine]
effect on BN52207 induced secretion of TNF-α (TNF-α [2]; FIG. 4): inhibited

CC(=O)CCCCn1c(=O)c2c(ncn2C)n(C)c1=O [pentoxifylline]
effect on BN enhanced stimulation of TNF-α secretion by LPS stimulated PBM (TNF-α [2]; PBM 18 hours, BN52207 (5 μg/ml) + LPS (1 μg/ml) + pentoxifylline (50 μg/ml), FIG. 4): inhibited

IFN-γ: recombinant interferon-γ, a gift from Genentech
TNF-α secretion on stimulation of PBM with IFN-γ alone (TNF-α [2]; IFN-γ (500 U/ml), 18 hours, FIG. 3A): results in the secretion of TNF-α
